Reference: PMC4840262 (Mutagenesis, 2015)
Where a name gives a salt, the structure may show the parent alone. Read-outs that look alike come from different tables or passages of the source. Marks after values point to notes of the source that are not given here.

Legend:
[1] = test system: human lymphocytes
[2] = test system: CHO-K1 cells; settings: Chinese hamster
[3] = test system: CHO-K1 cells; settings: cited from earlier work
[4] = human PK studies, high therapeutic doses; cited from earlier work
[5] = test system: human lymphocytes; settings: male, human
[6] = test system: rats; settings: lifetime studies in the rat; cited from earlier work
[7] = test system: mice; settings: lifetime studies in the mouse; cited from earlier work

Structure (SMILES)	BMD10 [2] [µg/mL]	BMDL10 [2] [µg/mL]	Td (threshold dose) [3] [µg/mL]	Td–L–CI (lower confidence Td) [3] [µg/mL]	also measured
CO[C@@]12[C@H](COC(N)=O)C3=C(C(=O)C(C)=C(N)C3=O)N1C[C@@H]1N[C@@H]12 [Mitomycin C, mitomycin C]	–	–	–	–	Mean MNBN cell frequency (%) ([1]; male, human): 8.70* %
CCCCNC(=O)n1c(NC(=O)OC)nc2ccccc21 [Benomyl, benomyl]	0.450	0.348	0.659	0.520	–
COC(=O)Nc1nc2ccc(C(=O)c3ccccc3)cc2[nH]1 [Mebendazole, mebendazole]	0.024	0.018	–	–	Oral bioavailability [4]: around 2%
CCCSc1ccc2nc(NC(=O)OC)[nH]c2c1 [Albendazole, albendazole]	0.037	0.027	0.005	0.003	Fold increases in MN over concurrent vehicle control ([1]; male, human): 9.3; Lowest non-significant doses (micronuclei) ([1]; male, human): 0.04 µg per ml; %C+ micronuclei [5]: 72%; %C− micronuclei [5]: 28%; Carcinogenicity (in words) [6]: negative; Carcinogenicity (in words) [7]: negative
CCC[S+]([O-])c1ccc2[nH]c(NC(=O)OC)nc2c1 (stereo not shown) [Albendazole sulfoxide, albendazole sulfoxide]	1.100	0.861	1.708	1.474	Lowest non-significant doses (micronuclei) ([1]; male, human): 3.0 µg per ml; %C+ micronuclei [5]: 71%; %C− micronuclei [5]: 29%
CC[C@]1(O)C[C@@H]2CN(CCc3c([nH]c4ccccc34)[C@@](C(=O)OC)(c3cc4c(cc3OC)N(C)[C@H]3[C@@](O)(C(=O)OC)[C@H](OC(C)=O)[C@]5(CC)C=CCN6CC[C@]43[C@@H]65)C2)C1 [Vinblastine, vinblastine sulfate]	–	–	–	–	Fold increases in MN over concurrent vehicle control ([1]; 0.12 μg/ml): 56.6; Frequency of micronucleated binucleate cells (%) ([1]; male, human): 9.25* %
c1ccc2[nH]c(-c3cscn3)nc2c1 [thiabendazole]	–	–	–	–	MNBN induction in CHO-K1 cells (in words) [3]: inactive
